In patent US20050075501A1, “Ammonium compounds bearing and electrophilic fluorine, reagent containing same, method using same and synthesis method for obtaining them” (priority 2000, published 2005) one finds Solubility data, which are given here for 1 compound.

The nature of this data set: Solubility of N-fluorocinchonidinium tetrafluoroborate in solvents. It is filed as physicochemical. The settings on record: acetonitrile. The procedure:
^19F NMR (282 MHz, CD3CN/CCl3F): 37.71 (s, 1F); −154.52 (s, 1F); −154.60 (s, 3F). (CD3CN/TFA): 118.35 (s, 1F); −74.12 (s, 1F); −74.17 (s, 3F). FTIR: (ν N—F) 927 cm^−1 Melting point: 189+/−2° C. […] MS (FAB^+, glycerol) 313 (cation^+, 18%) 295 (cation-H2O, 100) . TLC: acetone/heptane: 9/1; Rf=0.3.

With `C=CC1C[N+]2(F)CCC1CC2C(O)c1ccnc2ccccc12.F[B-](F)(F)F` (stereo not shown) [N-fluorocinchonidinium Tetrafluoroborate], the Solubility entry is recorded as “ca. 200 mg/ml”.
